# Activity calls are given as the source filed them.
# How the values were obtained:
# [1] = target: Induced myeloid leukemia cell differentiation protein Mcl-1 (Homo sapiens, UniProt Q07820); test: MCL1-BIM BH3 interaction inhibitors, dose response, biochemical, fluorescence polarization, BIM-BH3 peptide, 1536-well (AID 2217)
# Bcl-2-like protein 1 = Bcl-2-like protein 1 (Homo sapiens, UniProt Q07817); test: BCL-XL inhibitors, dose response, selectivity assay for MCL1 inhibitor project, biochemical, fluorescence polarization, 1536-well (AID 2218)
# [2] = target: Peroxisome proliferator-activated receptor gamma (Homo sapiens, UniProt P37231); test: PPARg partial agonists, dose response, cell-based, luminescence, assay provider (AID 504447); format: functional
# [3] = target: T1, Small ubiquitin-related modifier 1 (Homo sapiens, UniProt P63165); test: inhibitors of SUMO1 peptide binding, dose response, biochemical, fluorescence polarization, uHTS hits (AID 624382); format: functional; details: read-out: IC50_Mean
# [4] = target: T2, Probable nicotinate-nucleotide adenylyltransferase (Staphylococcus aureus (strain N315), UniProt P65502); format: functional, Staphylococcus aureus subsp. aureus N315;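 as to IC50 Mean: confirmatory dose-response retesting of NadD inhibitor hits first found in an ultra-high-throughput screen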
# [5] = target: T2, Probable nicotinate-nucleotide adenylyltransferase; format: functional, Staphylococcus aureus subsp. aureus N315; details: read-out: IC50_Mean
# [6] = target: T1, Small ubiquitin-related modifier 1; test: inhibitors of SUMO1 partner interactions, dose response, biochemical, FRET (AID 624383); format: functional; details: read-out: IC50_Mean
# [7] = HeLa cell cytotoxicity, dose response, cytotoxicity control for MgcRacGAP inhibitor project (AID 624300); format: functional
# [8] = target: T3, Rac GTPase-activating protein 1 (Homo sapiens, UniProt Q9H0H5); test: MgcRacGAP GTPase-activating activity inhibitors, confirmation, biochemical, ADP Hunter fluorescence, primary and confirmatory (AID 624330); format: functional
# T3 sequence (Q9H0H5 whole entry): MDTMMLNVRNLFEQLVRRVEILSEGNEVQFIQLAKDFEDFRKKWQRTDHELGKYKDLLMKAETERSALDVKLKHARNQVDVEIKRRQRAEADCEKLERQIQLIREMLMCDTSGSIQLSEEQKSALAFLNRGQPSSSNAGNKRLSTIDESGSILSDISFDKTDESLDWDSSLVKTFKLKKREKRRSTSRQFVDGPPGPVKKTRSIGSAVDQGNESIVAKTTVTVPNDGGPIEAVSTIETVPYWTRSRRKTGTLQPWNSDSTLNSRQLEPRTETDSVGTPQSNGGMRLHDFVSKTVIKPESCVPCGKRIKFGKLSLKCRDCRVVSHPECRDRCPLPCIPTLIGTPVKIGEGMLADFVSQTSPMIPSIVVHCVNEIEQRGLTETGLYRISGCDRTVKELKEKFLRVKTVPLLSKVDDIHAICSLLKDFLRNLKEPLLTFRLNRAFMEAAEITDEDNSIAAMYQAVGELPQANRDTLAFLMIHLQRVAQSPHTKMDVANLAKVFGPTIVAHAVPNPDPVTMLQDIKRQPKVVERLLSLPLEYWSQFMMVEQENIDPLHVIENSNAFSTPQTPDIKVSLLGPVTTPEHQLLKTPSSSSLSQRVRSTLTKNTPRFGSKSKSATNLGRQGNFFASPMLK
# Hexokinase HKDC1 [9] = target: T4, Hexokinase HKDC1 (Homo sapiens, UniProt Q2TB90); test: HKDC1 hexokinase activators, dose response, biochemical, W721R variant (AID 504730); format: functional
# T4 sequence (Q2TB90 whole entry): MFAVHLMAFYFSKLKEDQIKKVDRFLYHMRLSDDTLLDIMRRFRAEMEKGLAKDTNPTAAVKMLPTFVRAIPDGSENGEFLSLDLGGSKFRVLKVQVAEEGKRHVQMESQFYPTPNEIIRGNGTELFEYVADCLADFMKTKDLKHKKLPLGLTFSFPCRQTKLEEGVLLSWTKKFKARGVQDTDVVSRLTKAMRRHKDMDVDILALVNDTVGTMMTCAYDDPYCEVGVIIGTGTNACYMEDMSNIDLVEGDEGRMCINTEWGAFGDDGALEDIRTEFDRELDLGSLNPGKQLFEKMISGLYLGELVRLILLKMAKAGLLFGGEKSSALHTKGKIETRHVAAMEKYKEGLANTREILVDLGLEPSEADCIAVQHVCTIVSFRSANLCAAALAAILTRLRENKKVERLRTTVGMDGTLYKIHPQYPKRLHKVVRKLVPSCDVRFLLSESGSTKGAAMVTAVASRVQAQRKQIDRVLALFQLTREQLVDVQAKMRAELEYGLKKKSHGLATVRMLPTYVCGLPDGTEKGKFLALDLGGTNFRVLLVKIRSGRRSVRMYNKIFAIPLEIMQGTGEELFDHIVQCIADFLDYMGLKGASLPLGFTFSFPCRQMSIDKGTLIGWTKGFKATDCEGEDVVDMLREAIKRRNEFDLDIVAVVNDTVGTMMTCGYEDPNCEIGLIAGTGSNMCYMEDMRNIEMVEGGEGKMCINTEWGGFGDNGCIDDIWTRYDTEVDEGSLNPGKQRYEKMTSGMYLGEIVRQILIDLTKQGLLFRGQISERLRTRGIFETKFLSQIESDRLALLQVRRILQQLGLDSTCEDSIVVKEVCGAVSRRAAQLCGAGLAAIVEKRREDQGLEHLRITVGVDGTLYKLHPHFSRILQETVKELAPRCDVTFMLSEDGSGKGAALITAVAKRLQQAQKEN
# Nonstructural protein 1 = Nonstructural protein 1 (Influenza A virus, UniProt Q194T2); format: functional, Influenza A virus (A/California/07/2009(H1N1))
# Hexokinase-1 = Hexokinase-1 (Homo sapiens, UniProt P19367); test: hexokinase 1 activators, dose response, selectivity assay for HKDC1 activator project, biochemical (AID 504762); format: functional
# HEK293 = test: inhibitors of LMP1-driven NF-kB reporter, dose response, cell-based, HEK293, luciferase, cherry-pick (AID 588343); format: functional; details: Homo sapiens
# J774.A1 = test: Confirmation of image-based Screening Assay for Inhibitors of Phagocytosis. [Related pubchem assays (depositor defined):AID1029, AID1643]; format: functional, cell-based; details: Mus musculus
# [10] = target: T5, E3 ubiquitin-protein ligase XIAP (Homo sapiens, UniProt P98170); test: Counter Screen using XIAP-Bir3 of the Chemical Antagonists of IAP-family anti-apoptotic proteins confirmation assay. [Related pubchem assays (depositor defined):AID1018, AID1449, AID1513, AID1638, AID1749, AID1750, AID488957, AID488963]
# [11] = target: T5, E3 ubiquitin-protein ligase XIAP; test: Chemical Antagonists of IAP-family anti-apoptotic proteins confirmation. [Related pubchem assays (depositor defined):AID1018, AID1513, AID1514, AID1638, AID1749, AID1750, AID488957, AID488963]
# [12] = target: T5, E3 ubiquitin-protein ligase XIAP; test: XIAP antagonists, biochemical, IAP family, fluorescence polarization (AID 1018); format: functional
# [13] = target: Eukaryotic translation initiation factor 4E (Mus musculus, UniProt P63073); test: eIF4E–eIF4G protein interaction inhibitors, dose response, biochemical, TR-FRET (AID 855); format: functional;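 also: potency for disrupting eIF4E binding to eIF4GI seen as loss of FRET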
# Hexokinase HKDC1 [14] = target: T4, Hexokinase HKDC1; test: HKDC1 hexokinase inhibitors, dose response, biochemical, W721R variant (AID 504729); format: functional
# [15] = target: Glyceraldehyde-3-phosphate dehydrogenase (Homo sapiens, UniProt P04406)
# [16] = target: T6, Alkaline phosphatase, tissue-nonspecific isozyme (Homo sapiens, UniProt P05186); test: human TNAP enzyme inhibitors, SAR follow-up, biochemical, luminescent, dose response (AID 1056)
# T6 sequence (P05186 whole entry): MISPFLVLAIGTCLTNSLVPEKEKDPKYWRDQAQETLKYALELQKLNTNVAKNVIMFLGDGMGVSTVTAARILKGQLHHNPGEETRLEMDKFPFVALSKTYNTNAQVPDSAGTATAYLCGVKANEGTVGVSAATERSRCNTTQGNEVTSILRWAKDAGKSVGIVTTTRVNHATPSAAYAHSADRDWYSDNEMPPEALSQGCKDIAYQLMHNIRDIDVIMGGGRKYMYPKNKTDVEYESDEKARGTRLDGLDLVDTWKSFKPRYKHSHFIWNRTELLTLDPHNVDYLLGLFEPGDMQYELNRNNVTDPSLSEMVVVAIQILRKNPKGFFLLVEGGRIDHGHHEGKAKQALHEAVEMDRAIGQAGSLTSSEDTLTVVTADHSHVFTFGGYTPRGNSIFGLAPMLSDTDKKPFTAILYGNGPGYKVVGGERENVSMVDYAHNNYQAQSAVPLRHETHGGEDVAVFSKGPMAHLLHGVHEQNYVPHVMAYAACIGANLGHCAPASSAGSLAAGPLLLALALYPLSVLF
# [17] = target: T7, G-protein coupled receptor 35 (Homo sapiens, UniProt Q9HC97); test: GPR35 antagonists blocking zaprinast-driven arrestin recruitment, primary screen, imaging, U2OS, beta-arrestin-GFP, zaprinast agonist (AID 2058); format: functional;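 also: antagonist potency meaning inhibition of agonist-induced arrestin redistribution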
# [18] = target: T7, G-protein coupled receptor 35; test: SAR analysis of Antagonists of the GPR35 Receptor using an Image-Based Assay - Set 5. [Related pubchem assays (depositor defined):AID2058, AID2079]; format: functional
# [19] = target: T7, G-protein coupled receptor 35; test: SAR Analysis for the identification of Selective Antagonists of ERK1/2 Activity in GPR35-Overexpressing U2OS Cells - Set 2. [Related pubchem assays (depositor defined):AID2058, AID2079]; format: functional, cell-based
# [20] = target: G-protein coupled receptor 55 (Homo sapiens, UniProt Q9Y2T6); test: SAR Analysis of Selective Antagonists of GPR55 using an Image-Based Assay - Set 3. [Related pubchem assays (depositor defined):AID2058, AID2079]; format: functional
# Mu-type opioid receptor = Mu-type opioid receptor (Homo sapiens, UniProt P35372); test: SAR Analysis of Antagonists of the MOR Receptor using an Image-Based Assay - Set 3. [Related pubchem assays (depositor defined):AID1777, AID1785, AID1786, AID1966, AID2133, AID2136, AID2284, AID2285, AID2420]; format: functional
# [21] = target: T8, Kappa-type opioid receptor (Homo sapiens, UniProt P41145); test: SAR analysis of small molecule antagonists of the kappa opioid receptor via a luminescent beta-arrestin assay - Set 4. [Related pubchem assays (depositor defined):AID1777, AID1778, AID1785, AID1786, AID1966, AID2133, AID2136, AID2285]; format: functional
# [22] = target: Delta-type opioid receptor (Homo sapiens, UniProt P41143); test: SAR Analysis of Antagonists of the DOR Receptor using an Image-Based Assay - Set 3. [Related pubchem assays (depositor defined):AID1777, AID1785]; format: functional;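 also: U2OS cells expressing DOR1 and beta-arrestin GFP stimulated with 100 nM SNC80; imaging of GFP-tagged beta-arrestin moving into spots after receptor activation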
# [23] = target: T8, Kappa-type opioid receptor; test: SAR analysis of Antagonists of the Kappa Opioid Receptor (KOR) using an Image-Based Assay - Set 4. [Related pubchem assays (depositor defined):AID1777, AID1785]; format: functional
# [24] = target: Voltage-dependent T-type calcium channel subunit alpha-1H (Homo sapiens, UniProt O95180); test: Cav3.2 T-type channel inhibitors, cell-based, synthetic library set 1, calcium flux (AID 493022); format: functional
# T-cell = test: inhibitors of CD8+ T cell–vesicle binding, dose response, mouse 2C CD8+ T cells, flow cytometry (AID 485284); format: functional
# T7 sequence (Q9HC97 whole entry): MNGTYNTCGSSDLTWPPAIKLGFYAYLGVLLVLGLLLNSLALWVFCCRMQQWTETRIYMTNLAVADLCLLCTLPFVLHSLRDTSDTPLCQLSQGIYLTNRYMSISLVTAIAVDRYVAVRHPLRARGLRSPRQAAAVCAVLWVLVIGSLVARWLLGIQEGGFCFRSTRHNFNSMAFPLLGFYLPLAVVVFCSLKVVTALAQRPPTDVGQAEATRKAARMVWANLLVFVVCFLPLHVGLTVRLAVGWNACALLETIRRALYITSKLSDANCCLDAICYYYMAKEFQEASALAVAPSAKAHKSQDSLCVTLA
# T5 sequence (P98170 whole entry): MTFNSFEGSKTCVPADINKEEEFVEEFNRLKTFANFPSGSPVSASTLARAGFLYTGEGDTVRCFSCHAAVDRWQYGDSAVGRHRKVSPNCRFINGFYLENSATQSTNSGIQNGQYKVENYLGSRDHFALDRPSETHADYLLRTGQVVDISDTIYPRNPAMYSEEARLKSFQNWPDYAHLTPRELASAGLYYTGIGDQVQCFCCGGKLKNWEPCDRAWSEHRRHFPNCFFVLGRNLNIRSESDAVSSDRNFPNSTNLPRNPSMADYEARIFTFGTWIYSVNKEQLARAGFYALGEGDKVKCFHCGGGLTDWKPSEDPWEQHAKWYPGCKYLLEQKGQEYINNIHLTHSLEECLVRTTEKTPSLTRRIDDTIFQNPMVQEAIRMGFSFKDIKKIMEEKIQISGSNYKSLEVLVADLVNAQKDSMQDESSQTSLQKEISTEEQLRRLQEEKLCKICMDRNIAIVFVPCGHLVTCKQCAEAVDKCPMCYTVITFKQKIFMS
# T1 sequence (P63165 whole entry): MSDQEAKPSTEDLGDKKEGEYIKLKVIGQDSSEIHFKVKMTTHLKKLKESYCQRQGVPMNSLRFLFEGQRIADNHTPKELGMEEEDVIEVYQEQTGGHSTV
# T2 sequence (P65502 whole entry): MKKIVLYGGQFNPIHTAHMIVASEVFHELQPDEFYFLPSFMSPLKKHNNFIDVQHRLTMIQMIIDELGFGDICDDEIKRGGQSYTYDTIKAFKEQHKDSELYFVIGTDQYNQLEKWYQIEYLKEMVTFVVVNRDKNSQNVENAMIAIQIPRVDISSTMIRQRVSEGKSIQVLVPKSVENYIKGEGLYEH
# T8 sequence (P41145 whole entry): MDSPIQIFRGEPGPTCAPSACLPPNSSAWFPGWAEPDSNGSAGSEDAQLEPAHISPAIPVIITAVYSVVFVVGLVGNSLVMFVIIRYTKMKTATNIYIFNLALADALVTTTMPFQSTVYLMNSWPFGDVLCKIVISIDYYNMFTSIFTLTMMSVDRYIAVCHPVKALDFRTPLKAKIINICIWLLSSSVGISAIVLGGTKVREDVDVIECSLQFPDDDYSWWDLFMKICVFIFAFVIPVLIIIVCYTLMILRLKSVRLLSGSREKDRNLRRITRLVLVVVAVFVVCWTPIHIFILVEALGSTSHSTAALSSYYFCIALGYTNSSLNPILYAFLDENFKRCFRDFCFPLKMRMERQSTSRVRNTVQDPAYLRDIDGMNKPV
# Eukaryotic translation initiation factor 4E, sequence (P63073 whole entry): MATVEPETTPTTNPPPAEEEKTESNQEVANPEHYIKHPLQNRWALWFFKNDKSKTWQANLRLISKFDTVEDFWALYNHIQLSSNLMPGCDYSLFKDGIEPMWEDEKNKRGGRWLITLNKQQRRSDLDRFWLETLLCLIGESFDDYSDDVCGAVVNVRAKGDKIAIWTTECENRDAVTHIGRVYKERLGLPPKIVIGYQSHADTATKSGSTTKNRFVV
# Nonstructural protein 1, sequence (Q194T2 whole entry): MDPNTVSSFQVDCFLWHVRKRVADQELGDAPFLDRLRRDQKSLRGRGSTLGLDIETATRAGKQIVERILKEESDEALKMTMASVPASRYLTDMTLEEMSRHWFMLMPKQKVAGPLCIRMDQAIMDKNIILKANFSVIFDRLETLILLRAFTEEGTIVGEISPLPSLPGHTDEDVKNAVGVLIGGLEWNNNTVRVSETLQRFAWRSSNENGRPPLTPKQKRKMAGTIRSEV
# Delta-type opioid receptor, sequence (P41143 whole entry): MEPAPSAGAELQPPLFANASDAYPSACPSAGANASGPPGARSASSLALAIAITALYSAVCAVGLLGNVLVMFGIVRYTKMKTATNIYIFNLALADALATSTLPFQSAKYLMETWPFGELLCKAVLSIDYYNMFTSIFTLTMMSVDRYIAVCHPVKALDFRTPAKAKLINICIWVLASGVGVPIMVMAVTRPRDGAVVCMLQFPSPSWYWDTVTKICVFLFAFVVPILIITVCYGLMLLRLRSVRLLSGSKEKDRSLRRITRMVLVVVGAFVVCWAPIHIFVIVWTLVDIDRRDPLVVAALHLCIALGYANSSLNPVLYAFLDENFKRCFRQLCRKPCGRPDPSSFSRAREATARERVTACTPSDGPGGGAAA
# Bcl-2-like protein 1, sequence (Q07817 whole entry): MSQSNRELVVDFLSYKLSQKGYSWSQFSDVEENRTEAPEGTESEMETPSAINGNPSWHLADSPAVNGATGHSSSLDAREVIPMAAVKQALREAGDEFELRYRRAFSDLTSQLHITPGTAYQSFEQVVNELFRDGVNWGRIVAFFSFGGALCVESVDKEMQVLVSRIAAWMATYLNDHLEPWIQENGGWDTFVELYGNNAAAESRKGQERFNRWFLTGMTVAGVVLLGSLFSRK
# Hexokinase-1, sequence (P19367 whole entry): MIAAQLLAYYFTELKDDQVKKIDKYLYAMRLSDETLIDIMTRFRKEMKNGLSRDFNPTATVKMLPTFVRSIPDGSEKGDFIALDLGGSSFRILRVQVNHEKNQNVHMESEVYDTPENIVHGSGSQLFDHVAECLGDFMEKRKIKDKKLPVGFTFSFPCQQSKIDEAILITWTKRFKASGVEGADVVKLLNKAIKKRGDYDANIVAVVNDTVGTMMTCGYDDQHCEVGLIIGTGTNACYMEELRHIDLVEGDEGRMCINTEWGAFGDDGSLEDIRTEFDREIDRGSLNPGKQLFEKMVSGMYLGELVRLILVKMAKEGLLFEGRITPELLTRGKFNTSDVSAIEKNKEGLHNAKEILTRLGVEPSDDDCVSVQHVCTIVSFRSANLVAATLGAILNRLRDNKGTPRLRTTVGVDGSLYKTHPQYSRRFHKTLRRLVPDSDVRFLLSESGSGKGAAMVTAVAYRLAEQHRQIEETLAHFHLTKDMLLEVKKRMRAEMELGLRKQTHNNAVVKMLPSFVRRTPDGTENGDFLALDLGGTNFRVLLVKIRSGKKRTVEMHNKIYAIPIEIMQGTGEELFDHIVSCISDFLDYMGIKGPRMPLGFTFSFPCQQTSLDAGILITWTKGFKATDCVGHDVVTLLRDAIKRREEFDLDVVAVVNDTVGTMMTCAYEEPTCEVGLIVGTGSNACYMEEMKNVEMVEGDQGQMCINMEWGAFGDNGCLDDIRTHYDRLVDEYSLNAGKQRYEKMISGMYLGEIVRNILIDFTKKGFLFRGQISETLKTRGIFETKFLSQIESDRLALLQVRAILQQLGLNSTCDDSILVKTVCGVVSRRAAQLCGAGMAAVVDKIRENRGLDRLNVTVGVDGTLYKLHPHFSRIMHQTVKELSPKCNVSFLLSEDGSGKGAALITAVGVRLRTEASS
# Glyceraldehyde-3-phosphate dehydrogenase, sequence (P04406 whole entry): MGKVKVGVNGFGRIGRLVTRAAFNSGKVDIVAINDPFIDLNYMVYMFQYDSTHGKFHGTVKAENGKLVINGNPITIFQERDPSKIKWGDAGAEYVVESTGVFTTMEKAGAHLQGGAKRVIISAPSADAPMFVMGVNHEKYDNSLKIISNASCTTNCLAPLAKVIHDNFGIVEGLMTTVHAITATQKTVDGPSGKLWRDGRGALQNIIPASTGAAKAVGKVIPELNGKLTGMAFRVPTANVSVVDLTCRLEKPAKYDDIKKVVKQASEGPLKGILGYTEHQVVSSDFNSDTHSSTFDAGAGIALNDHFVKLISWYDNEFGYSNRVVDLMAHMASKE
# G-protein coupled receptor 55, sequence (Q9Y2T6 whole entry): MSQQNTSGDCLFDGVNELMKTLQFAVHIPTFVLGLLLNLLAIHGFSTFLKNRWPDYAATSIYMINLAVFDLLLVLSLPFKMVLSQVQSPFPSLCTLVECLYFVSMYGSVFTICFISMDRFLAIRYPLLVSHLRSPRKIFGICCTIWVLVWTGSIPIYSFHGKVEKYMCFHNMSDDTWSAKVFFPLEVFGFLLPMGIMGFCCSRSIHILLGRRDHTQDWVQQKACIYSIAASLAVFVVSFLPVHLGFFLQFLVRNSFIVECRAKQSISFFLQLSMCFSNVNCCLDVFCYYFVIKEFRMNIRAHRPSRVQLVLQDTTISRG
# Induced myeloid leukemia cell differentiation protein Mcl-1, sequence (Q07820 whole entry): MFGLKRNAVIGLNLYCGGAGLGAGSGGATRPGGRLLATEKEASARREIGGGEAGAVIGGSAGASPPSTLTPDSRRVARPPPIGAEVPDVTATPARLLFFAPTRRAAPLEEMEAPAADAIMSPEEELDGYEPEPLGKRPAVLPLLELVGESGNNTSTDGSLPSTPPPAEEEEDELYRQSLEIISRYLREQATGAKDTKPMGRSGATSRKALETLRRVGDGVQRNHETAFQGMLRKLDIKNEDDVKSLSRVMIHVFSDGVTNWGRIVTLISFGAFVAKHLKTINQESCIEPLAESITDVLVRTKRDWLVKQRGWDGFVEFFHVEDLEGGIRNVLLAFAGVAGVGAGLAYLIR
# Mu-type opioid receptor, sequence (P35372 whole entry): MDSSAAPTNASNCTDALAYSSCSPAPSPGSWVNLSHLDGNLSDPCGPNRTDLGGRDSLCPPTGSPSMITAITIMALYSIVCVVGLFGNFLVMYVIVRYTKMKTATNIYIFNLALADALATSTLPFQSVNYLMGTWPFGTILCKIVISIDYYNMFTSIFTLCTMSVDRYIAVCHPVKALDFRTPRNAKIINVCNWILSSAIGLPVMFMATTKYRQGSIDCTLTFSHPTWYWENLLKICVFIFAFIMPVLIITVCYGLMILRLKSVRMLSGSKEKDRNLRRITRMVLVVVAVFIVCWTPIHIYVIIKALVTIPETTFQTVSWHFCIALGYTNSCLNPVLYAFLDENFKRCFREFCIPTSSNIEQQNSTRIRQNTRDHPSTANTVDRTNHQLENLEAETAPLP
structure (smiles),measurement,setting,value
O=C(C1=C(O)C(=O)N(c2nc3ccc(Cl)cc3s2)C1c1ccco1)c1ccco1 (stereo unspecified),IC50,[1],28.8 µM (not active)
same,IC50,Bcl-2-like protein 1,> 109 µM (not active)
same,EC50,[2],0.7 µM (active)
same,IC50,[3],> 66.6 µM (inactive)
same,IC50,[4],13.8 µM (active)
same,IC50,[5],56.8 µM (active)
same,IC50,[6],8.8 µM (active)
same,CC50,[7],100 µM (active)
same,IC50,[8],118 µM (active)
CC(=NNC(=S)N1CCCCC1)c1cccc(C)n1,EC50,Hexokinase HKDC1 [9],14.5 µM (active)
same,IC50,Nonstructural protein 1,3.84 µM (active)
same,EC50,Hexokinase-1,> 80 µM (inactive)
same,AC50,HEK293,2.74 µM (active)
O=C(COc1ccc(-c2ccccc2)cc1)N1CCN(S(=O)(=O)Cc2ccccc2)CC1,IC50,J774.A1,> 25 µM (inactive)
O=C(O)[C@@H](c1ccccc1)N1Cc2ccccc2C1=O,IC50,[10],> 200 µM (inactive)
same,IC50,[11],65.6 µM (active)
same,IC50,[12],28.3 µM (active)
same,IC50,[13],13.8 µM (active)
same,IC50,Hexokinase HKDC1 [14],13.7 µM (active)
c1cncc(-n2cncn2)c1,IC50,[15],> 100 µM (not active)
same,IC50,[16],> 100 µM (inactive)
COC(=O)c1cnn(-c2ccc(F)cc2F)c1/C=N/NC(=S)NC(C)(C)C,IC50,[17],< 0.5 µM (active)
same,IC50,[18],0.16 µM (active)
same,IC50,[19],1.39 µM (active)
same,IC50,[20],9.08 µM (active)
Cc1ccc(S(=O)(=O)NCc2ccc(C(=O)NCCN3CCC(c4ccccc4)CC3)cc2)cc1,IC50,Mu-type opioid receptor,3.88 µM (active)
same,IC50,[21],> 20 µM (inactive)
same,IC50,[22],> 32 µM (inactive)
same,IC50,[23],10.6 µM (inactive)
CC(C)(Oc1ccccc1)C(=O)Nc1nnc(-c2ccc3ccccc3c2)o1,EC50,[24],1.1 µM (active)
CCN(CC)CCNC(=O)CCCNC(=O)Cn1cnc2sc(C)c(C)c2c1=O,EC50,T-cell,9.52 µM (active)
